Series [1] deals with K562 chronic myeloid leukemia (CML) cells. As to the kind of experiment: K562 CML cell proliferation, 3-day growth inhibition by cell count. The format is cell-based, human. As to the method: (§1) MCF-7 BC and K562 chronic myeloid leukemia (CML) cells were grown in standard RPMI 1640 medium. Seventy-five thousand MCF-7 and 100,000 K-562 cells grown in RPMI 1640 medium containing 10% fetal bovine serum (FBS, for MCF-7) or 0.5% bovine serum albumin (BSA, for K562) were seeded into wells of 24-well culture plates. After 24 h, MCF-7 cells were shifted to K562 medium (serum free). After an additional 24 h, the cultures were treated with various concentrations of peptides or a mixture of peptides for 72 h and counted. The assays were done in triplicates and repeated twice from different cell preparations. The cell numbers were expressed as means ± standard error (SE). Statistical analysis was done with a SlideWrite graphical software package (Encinitas, USA).

A short description of series [2]: Serum stability. The class given is in vitro ADME. The following applies: undiluted pooled mouse serum, RP-HPLC at 214 nm, triplicate; for half-life at 0.075 mg/mL: 10 μL of 3 mg/mL peptide in 390 μL serum, 37°C, 0, 30, 120, 240 min, TCA precipitation. Here is the method: (§2) For serum stability studies (Powell et al., [1993]) 10 μL of an aqueous peptide stock solution (3 mg/mL) was added to 390 μL pooled mouse serum in triplicate. The peptide-serum mixtures were thermostated at 37°C. After 0, 30, 120, and 240 min, 95 μL aliquots were mixed with 25 μL trichloroacetic acid (15%, w/v) and incubated for 10 min on ice. The precipitated proteins were separated by centrifugation (5 min, 12,000 × g, Eppendorf MiniSpin). The supernatant (90 μL) was neutralized with 8.5 μL aqueous sodium hydroxide solution (1 M) and mixed with 3% aqueous acetonitrile containing 0.1% TFA (121.5 μL). After centrifugation (5 min, 12,000 × g, Eppendorf MiniSpin) a 100 μL solution was analyzed by RP-HPLC using a Jupiter C18 column (2.0 mm inner diameter, 150 mm length, 5 μm particle size, 30 nm pore size; Phenomenex, Torrance) on a Beckman Gold HPLC System at 60°C. The gradient from 0.1% TFA in water (eluent A) to 60% acetonitrile in 0.1% aqueous TFA (eluent B) was developed using 1% B/min and the amide bond was monitored at 214 nm.

For series [3], the system named is normal mice. The conditions noted are these: up to a 10 mg/kg bolus intraperitoneal (ip) dose; ref Otvos et al., 2011a; cited from earlier work. From the text: In 2011 we reported on the identification of the adiponectin active site and the design and functional characterization of adiponectin-based peptide compounds for the activation of AdipoR using glioma and breast cancer (BC) model systems (Otvos et al., [2011a]). The lead peptide, the 10-mer ADP355, primarily acts through AdipoR1 and induces typical adiponectin signaling pathways in cancer cells (Otvos et al., [2011a]).

The conditions of series [4]: estimated from degradation kinetics in diluted mouse serum; ref Otvos et al., 2011a; cited from earlier work. From the text: Peptide ADP355 (355) is remarkably stable in mouse serum (Otvos et al., [2011a]). […] This stability level is quite high among peptide therapeutics, and is li ...
In series [5] the test system is MCF-7 BC cells. As to the kind of experiment: MCF-7 BC cell proliferation, 3-day growth inhibition/promotion by cell count. The class given is cell-based. Here is the method:
as §1

Series [6] has as its system MCF-7 BC cells. The conditions noted are these: ADP400 100 nM with ADP355 100 nM; p = 0.003.
Series [7] in a line: Aggregation / precipitation observed during assays. The class given is physicochemical. The following applies: during serum stability assay procedure (mouse serum, TCA precipitation) or under the authors' experimental conditions. Here is the method:
as §2

Series [8] is described as follows: pooled mouse serum. The following applies: 37°C, up to 240 min.
Series [9] relates to MCF-7 cells. As to the kind of experiment: Agonistic activity screening of targeted peptide library in MCF-7 cells. The format is cell-based. The conditions noted are these: biological activity screening in MCF-7 cells, targeted agonist library. From the text:
Based on the success of our first-in-class AdipoR agonist ADP355 and recognizing the need for a similar AdipoR antagonist, we modified the composition of ADP355 to attenuate AdipoR functions and signaling. The starting point of the design was the activity of the 396-member peptide library we made earlier and from which the ADP355 agonist was selected, and a new central hexamer named peptide 3–8 (Table 2). […] While Pro1 in the C-terminal octamer (Pro3 in ADP355) is replaceable, Gly2, Tyr4, Phe6, Ala7, and DSer8 should be kept for binding. Because Nva3 recovers activation, Leu, the original amino acid in native adiponectin, should be used in this position. […] In the new antagonist Pro1 was replaced with 1-amino-cyclohexane carboxylic acid (Chex1), extremely useful as an N-terminal cyclic aliphatic amino acid mimic in designer antibacterial peptides (Cudic et al., [2002]). These considerations led to derivative 400 (ADP400), H-Chex-Gly-Leu-Tyr-DSer-Phe-Ala-DSer-NH2 (we called it Chex-DSer-8), as a potential AdipoR antagonist (Tables 1, 2).

The subject of series [10] is K562 chronic myeloid leukemia (CML) cells. The following applies: compared to unrelated human serum albumin; ref Yokota et al., 2000; cited from earlier work. An excerpt:
The cellular models used here were selected among those known to express AdipoR, involve adiponectin in biological responses and yield reproducible results in our hands. Adiponectin protein has been linked to leukemia, lymphoma, and myeloma in individuals with above-average BMI (Obeid and Hebbard, [2012]). Human-origin K562 CML cells express both AdipoR forms although at relatively low levels (Ozturk et al., [2012]).

The source of these data is paper PMC4201147 (Frontiers in Chemistry, 2014).

Entries after “also recorded” stand apart in the source; their conditions may differ. Read-outs that look alike come from different tables or passages of the source. Positions of bridges follow the written chain, without caps; N, C: chain ends. Non-standard residues stand in square brackets, D forms with d. Residues, ends and D or L forms follow the SMILES beside them. Chains are numbered I, II in the order given. No end group written: not given here. Ac6c = NC1(C(=O)O)CCCCC1; Dab = NCC[C@H](N)C(=O)O; Nva = CCC[C@H](N)C(=O)O

Regarding `CCC[C@H](NC(=O)[C@@H]1CCCN1C(=O)[C@@H](NC(=O)[C@H](N)CC(N)=O)[C@@H](C)CC)C(=O)N[C@@H](CC(C)C)C(=O)N[C@@H](Cc1ccc(O)cc1)C(=O)N[C@H](CO)C(=O)N[C@@H](Cc1ccccc1)C(=O)N[C@@H](C)C(=O)N[C@H](CO)C(N)=O` [ADP355] (H-[dN]IP[Nva]LY[dS]FA[dS]-NH2), in [1] (K562, 72 h treatment, 10 nM–10 μM peptide, first assay, IC50 halfway between uninhibited growth and maximal growth inhibition, read-out: relative IC50, inhibition of K562 proliferation), the IC50 is 0.2 µM. In addition, the half-life (in general, how long it takes for the measured level to halve) at 0.075 mg/mL in series [2] was found to be 3 h. For the same molecule, the “toxic properties to normal mice” value in series [3] was “no toxic properties”. For the same molecule, the “half-life in whole plasma (estimated)” value in series [4] was 1.25 h.
Consider `CCC[C@H](NC(=O)[C@@H]1CCCN1C(=O)[C@@H](NC(=O)[C@H](N)CC(N)=O)[C@@H](C)CC)C(=O)N[C@@H](CC(C)C)C(=O)N[C@@H](Cc1ccc(O)cc1)C(=O)N[C@H](CO)C(=O)N[C@@H](Cc1ccccc1)C(=O)N[C@@H](C)C(=O)N[C@H](CO)C(=O)N[C@@H](Cc1c[nH]cn1)C(=O)N1CCC[C@H]1C(=O)NCC[C@H](NC(=O)[C@@H]1CCCN1C(=O)[C@H](Cc1c[nH]cn1)NC(=O)[C@@H](CO)NC(=O)[C@H](C)NC(=O)[C@H](Cc1ccccc1)NC(=O)[C@@H](CO)NC(=O)[C@H](Cc1ccc(O)cc1)NC(=O)[C@H](CC(C)C)NC(=O)[C@H](CCC)NC(=O)[C@@H]1CCCN1C(=O)[C@@H](NC(=O)[C@H](N)CC(N)=O)[C@@H](C)CC)C(N)=O` [ADP399] (I: H-[dN]IP[Nva]LY[dS]FA[dS]HP[Dab]-NH2 / II: H-[dN]IP[Nva]LY[dS]FA[dS]HP; amide I:13-II:C), for which the half-life at 0.075 mg/mL in series [2] came to 0.917 h. The remaining at 2 h, 0.075 mg/mL in series [2] (37°C, 2 h, read-out: intact peptide still present after 2 h incubation) was determined as 16%.
Turning to `CC(C)C[C@H](NC(=O)CNC(=O)C1(N)CCCCC1)C(=O)N[C@@H](Cc1ccc(O)cc1)C(=O)N[C@H](CO)C(=O)N[C@@H](Cc1ccccc1)C(=O)N[C@@H](C)C(=O)N[C@H](CO)C(N)=O` [ADP400] (H-[Ac6c]GLY[dS]FA[dS]-NH2), the “effect on MCF-7 cell growth without ADP355 present” value in [5] (100 nM, alone, compared with co-treatment, which reached the growth level of 10 nM leptin) is on record as “promoted cell growth to an identical degree”. Further, the “effect on ADP355-induced MCF-7 growth inhibition” value in series [6] is recorded as “completely ameliorated”.
For the molecule `CCC[C@@H]1NC(=O)[C@@H]2CCCN2C(=O)[C@H]([C@@H](C)CC)NC(=O)[C@@H](CC(N)=O)NC(=O)[C@H](CC(=O)O)NC(=O)[C@H](Cc2c[nH]cn2)NC(=O)[C@@H](CO)NC(=O)[C@H](C)NC(=O)[C@H](Cc2ccccc2)NC(=O)[C@@H](CO)NC(=O)[C@H](Cc2ccc(O)cc2)NC(=O)[C@H](CC(C)C)NC(=O)[C@H](CCC)NC(=O)[C@@H]2CCCN2C(=O)[C@H]([C@@H](C)CC)NC(=O)[C@@H](CC(N)=O)NC(=O)[C@@H]2CCCN2C(=O)[C@H](Cc2c[nH]cn2)NC(=O)[C@@H](CO)NC(=O)[C@H](C)NC(=O)[C@H](Cc2ccccc2)NC(=O)[C@@H](CO)NC(=O)[C@H](Cc2ccc(O)cc2)NC(=O)[C@H](CC(C)C)NC1=O` [compound 398], the IC50 in series [1] (72 h) was found to be 0.3 µM. Besides, the “concentration of maximal effect on K562 proliferation” value in series [1] (K562, 3-day assay) was 1 µM. The figures for the aggregation / precipitation result in series [7] and in series [7] (listed as cyclic dimer) were “did aggregate during the serum stability assay” and “precipitated during the assay procedure”, respectively.
Consider “(H-DAsn-Ile-Pro-Nva-Leu-Tyr-DSer-Phe-Ala-DSer-His-Pro)2-Dab-NH2 (branched)”, for which, in [8], the cleaved bond entry is on record as “Leu-Tyr; also recorded: Tyr-DSer”.
With “HCNIPGLYYF [compound 24, member of targeted agonist library]”, the Agonistic activity entry in series [9] is recorded as “Normal”.
In the case of “HCN[Nva]PGLYYF [compound 156, member of targeted agonist library]”, the Agonistic activity entry in series [9] is “None”.
On to “HCN[Nva]PG[Nva]YYF [compound 288, member of targeted agonist library]”, for which, in series [9], the Agonistic activity result is “Reduced”.
As for NIPGLYYFAY [compound 25], in series [9], the Agonistic activity result is recorded as “Normal”.
Still for that read-out and setting: for “NIPGLY[dS]FAY [compound 223, member of targeted agonist library]” the value was “Weakest among P25 analogs”; for “NIP[Nva]LYYFAY [compound 157, member of targeted agonist library]”, “Increased”; for PGLYYF [3–8, new central hexamer], “None”.
For “PGLYYFAYHI [compound 26, member of targeted agonist library]”, in series [9], the Agonistic activity result is “Normal”.
Turning to “PGL[dS]YF[Nva]YHI [compound 290, member of targeted agonist library]”, the Agonistic activity result in [9] is recorded as “None”.
The same measure, in the same setting: then “[dN]IPGLYGFA[dS] [compound 91, member of targeted agonist library]”, with “Normal”.
“leptin: Leptin protein, positive control for exogenous mitogen actions [reference compound]”: the “promotion of MCF-7 cell growth” value in series [5] (10 nM, positive control for exogenous mitogen) was 10%.

B1: adiponectin protein: full-sized adiponectin protein, 244 amino acid cytokine (protein, UniProt Q15848 1-244, looked up)
chain: MLLLGAVLLLLALPGHDQETTTQGPGVLLPLPKGACTGWMAGIPGHPGHNGAPGRDGRDGTPGEKGEKGDPGLIGPKGDIGETGVPGAEGPRGFPGIQGRKGEPGEGAYVYRSAFSVGLETYVTIPNMPIRFTKIFYNQQNHYDGSTGKFHCNIPGLYYFAYHITVYMKDVKVSLFKKDKAMLFTYDQYQENNVDQASGSVLLHLEVGDQVWLQVYGEGERNGLYADNDNDSTFTGFLLYHDTN
modifications: full-length
notes: full-sized adiponectin protein, 244 amino acid cytokine
Turning to B1, in series [10], the “inhibition of relative proliferation rate of K562 cells” value is given as 9%.
